Article PMC8805605, “Discovery of Dimeric Arylsulfonamides as Potent ADAM8 Inhibitors” (ACS Medicinal Chemistry Letters, 2021)

Key:
human recombinant ADAM8 = molecular target: T1, human recombinant ADAM8 (Homo sapiens, UniProt P78325); experiment: ADAM8 fluorometric inhibition assay; format: biochemical; settings: for IC50: human recombinant enzyme, fluorometric assay, mean of three independent experiments in duplicate, read-out: In vitro inhibitory activity IC50 on ADAM8
T1 construct: kind gift of Franka Scharfenberg, University of Kiel
T1 sequence (P78325 17-824): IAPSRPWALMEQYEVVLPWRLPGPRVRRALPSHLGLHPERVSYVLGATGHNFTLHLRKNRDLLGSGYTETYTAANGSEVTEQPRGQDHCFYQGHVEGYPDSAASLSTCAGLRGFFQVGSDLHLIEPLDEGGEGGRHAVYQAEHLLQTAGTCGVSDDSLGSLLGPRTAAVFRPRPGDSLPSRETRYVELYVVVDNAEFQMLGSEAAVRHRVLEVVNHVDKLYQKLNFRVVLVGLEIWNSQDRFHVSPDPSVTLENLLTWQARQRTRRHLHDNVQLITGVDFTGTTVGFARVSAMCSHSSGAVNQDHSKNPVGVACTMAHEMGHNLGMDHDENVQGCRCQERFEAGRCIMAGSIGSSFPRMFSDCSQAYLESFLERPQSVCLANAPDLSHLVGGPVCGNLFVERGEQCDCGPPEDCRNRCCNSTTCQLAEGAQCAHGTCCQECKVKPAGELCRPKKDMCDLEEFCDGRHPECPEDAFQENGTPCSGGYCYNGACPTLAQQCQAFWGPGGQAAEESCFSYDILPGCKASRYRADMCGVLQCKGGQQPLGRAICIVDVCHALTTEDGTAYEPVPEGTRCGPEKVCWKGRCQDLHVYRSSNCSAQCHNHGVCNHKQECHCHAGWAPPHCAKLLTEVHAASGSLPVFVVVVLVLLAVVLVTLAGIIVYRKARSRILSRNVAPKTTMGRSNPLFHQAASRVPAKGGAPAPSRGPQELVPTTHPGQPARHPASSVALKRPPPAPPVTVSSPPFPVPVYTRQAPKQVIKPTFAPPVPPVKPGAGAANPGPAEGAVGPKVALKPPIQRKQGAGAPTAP
Protocol: The newly synthesized bivalent derivatives 1–3 were then tested in vitro on human recombinant ADAM8 in comparison with JG26 by a fluorometric assay. The inhibitory activity against a panel of MMPs and ADAM10/17 was determined as well to assess their selectivity profile.
(§1) (RFU). Percent of inhibition was calculated from control reactions without the inhibitor. IC50 was determined using the formula: v i/v o = 1/(1 + [I]/ IC50), where v i is the initial velocity of substrate cleavage in the presence of the inhibitor at concentration [I] and v o is the initial velocity in the absence of the inhibitor. Results were analyzed using SoftMax Pro software (version 5.4.3, Molecular Devices, Sunnyvale, CA) and Prism Software version 5.0 (GraphPad Software, Inc., La Jolla, CA, USA).
ADAM8 and ADAM17 inhibition assays
Recombinant ADAM8 and ADAM17 (kind gift of Franka Scharfenberg, University of Kiel) were diluted in assay buffer (25 mM Tris HCl, pH 8.0. 6x10-4 % Brij, 10 mM CaCl2, 10 mM ZnCl2) to a working concentration of 250 ng and incubated with inhibitors for 45 min in a total volume of 50 µL.
The fluorescent substrate PepDAB1310 was added in a concentration of 10 µM (in a volume of 50 µL). […]

MMP-12 = molecular target: T2, MMP-12 (Homo sapiens, UniProt P39900); experiment: MMP-12 fluorometric inhibition assay; format: biochemical; settings: mean of three independent experiments in duplicate, read-out: In vitro inhibitory activity IC50 on MMP-12
T2 construct: purchased R&D Systems
T2 sequence (P39900 106-470): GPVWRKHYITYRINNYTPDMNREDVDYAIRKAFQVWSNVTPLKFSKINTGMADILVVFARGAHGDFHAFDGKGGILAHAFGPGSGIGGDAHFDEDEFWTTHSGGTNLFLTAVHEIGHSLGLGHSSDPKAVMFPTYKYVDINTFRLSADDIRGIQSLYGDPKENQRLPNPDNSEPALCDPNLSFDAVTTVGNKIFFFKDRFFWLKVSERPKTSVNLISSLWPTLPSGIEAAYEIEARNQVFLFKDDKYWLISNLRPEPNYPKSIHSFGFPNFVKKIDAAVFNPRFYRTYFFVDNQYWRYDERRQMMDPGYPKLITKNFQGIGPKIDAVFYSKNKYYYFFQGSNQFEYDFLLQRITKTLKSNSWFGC
Protocol: The newly synthesized bivalent derivatives 1–3 were then tested in vitro on human recombinant ADAM8 in comparison with JG26 by a fluorometric assay. The inhibitory activity against a panel of MMPs and ADAM10/17 was determined as well to assess their selectivity profile. […]
VI. Biological Activity on Isolated Enzymes
MMP and ADAM10 inhibition assays.
Recombinant human MMP-14 catalytic domain was a kind gift of Prof. Gillian Murphy (Department of […]
Oncology, University of Cambridge, UK). Pro-MMP-1, pro-MMP-2, and pro-MMP-9, were purchased […]
from Calbiochem (Merck-Millipore). Pro-MMP-12 and ADAM10 were purchased from R&D Systems.
Proenzymes were activated immediately prior to use with p-aminophenylmercuric acetate (APMA 2 […]
mM for 1 h at 37°C for MMP-2 and MMP-1, 1 mM for 1 h at 37°C for MMP-9). Pro-MMP-12 was […]
auto activated by incubating in the fluorometric assay buffer (FAB: Tris 50 mM, pH = 7.5, NaCl 150 […]
mM, CaCl2 10 mM, Brij 35 0.05% and DMSO 1%) for 30 h at 37°C. For assay measurements, each […]
inhibitor stock solution (DMSO, 10 mM) was further diluted in FAB at seven different concentrations.
Activated enzyme (final concentration 0.56 nM for MMP-2, 1.3 nM for MMP-9, 1.0 nM for MMP- […]
14cd, 2.0 nM for MMP-1, 2.3 nM for MMP-12 and 20 nM for ADAM10) and inhibitor solutions were […]
incubated in the assay buffer for 3 h at 25 °C. ADAM10 was incubated for 1 h at 37°C in a different […]
was monitored every 10 sec. for 15 min. recording the increase in fluorescence (λ ex = 325 nm, λ em = […]
400 nm) using a Molecular Devices SpectraMax Gemini XPS plate reader. […]
as §1, with “USA). […]” for “USA).”

SMILES: O=C(CCCNC(=O)c1cccc(C(=O)NCCCC(=O)NCCC[C@@H](NS(=O)(=O)c2ccc(OCc3cc(Br)cc(Br)c3)cc2)C(=O)NO)c1)NCCC[C@@H](NS(=O)(=O)c1ccc(OCc2cc(Br)cc(Br)c2)cc1)C(=O)NO [Compound 1]
- IC50 (human recombinant ADAM8): 41 nM
- Selectivity for ADAM8 over ADAM10 (human recombinant ADAM8; ratio of IC50 values ADAM10/ADAM8): 740 fold
- IC50 (MMP-12): 242 nM

SMILES: O=C(NCCC[C@@H](NS(=O)(=O)c1ccc(OCc2cc(Br)cc(Br)c2)cc1)C(=O)NO)c1cccc(C(=O)NCCC[C@@H](NS(=O)(=O)c2ccc(OCc3cc(Br)cc(Br)c3)cc2)C(=O)NO)c1 [Compound 2]
- IC50 (human recombinant ADAM8): 73 nM
- IC50 (MMP-12): 41 nM

SMILES: O=C(NCCC[C@@H](NS(=O)(=O)c1ccc(OCc2cc(Br)cc(Br)c2)cc1)C(=O)NO)NCCC[C@@H](NS(=O)(=O)c1ccc(OCc2cc(Br)cc(Br)c2)cc1)C(=O)NO [Compound 3]
- IC50 (human recombinant ADAM8): 567 nM
- Times less active than compound 1 on ADAM8 (human recombinant ADAM8; ratio of ADAM8 IC50 values): 14 times

SMILES: NC(=O)NCCC[C@@H](NS(=O)(=O)c1ccc(OCc2cc(Br)cc(Br)c2)cc1)C(=O)NO [JG26, reference compound]
- IC50 (human recombinant ADAM8): 12 nM
- IC50 (MMP-12): 9.4 nM
